Results reported in patent publication US5912247A, “Quinazoline compound and anti-tumor agent containing said compound as an active ingredient” (Kanebo, Ltd., priority 1995, dated 1999).
Structures can show the parent of a compound that is named as a salt.

Legend:
[1] = system: St-4 solid tumor (human gastric cancer transplantable to nude mouse); assay: Anti-tumor activity against human gastric cancer St-4 (solid tumor) transplanted to nude mouse; type: in vivo, human (in male BALB/cA JCI-nu nude mice)
Description: Anti-tumor activity against human gastric cancer St-4 (solid tumor) transplanted to nude mouse: a) Materials: Test Animal: Male BALB/cA JCI-nu nude mice (six week old, six mice per group) Tumor: St-4 solid tumor (human gastric cancer transplantable to nude mouse) b) Test Method: St-4 solid tumor was cut to about 3 mm cubic, and the fragments were subcutaneously transplanted into the back at one side of the nude mice with a trockar. Ten days after the transplantation, the longitudinal size (L) and the size of the width direction (W) of the tumor were measured. The tumor weight was calculated by the formula: L×W×W/2, and when the weight of the tumor reached 100 mg to 300 mg, the mice were randomized. To the mice in test groups, the test compound was orally administered once a day for 40 days. The test compounds of this invention were administered in an amount of 30 mg/kg or 40 mg/kg in the form of a solution in distilled water, and No. 5666 was administered in an amount of 30 mg/kg or 100 mg/kg in the form of a suspension in 5% arabic gum solution. After the administration of the test compounds, the longitudinal size and the size in the width direction of the tumor were measured, and then the weight of tumor was calculated. The ratio of the tumor weight after treated with test compounds to the tumor weight before administration of test compounds (i.e. the relative tumor weight) was determined. As to the control group, the relative tumor weight was also determined likewise. The anti-tumor activity was evaluated in the same manner as described in Ann. Clin. Lab. Sci., 8 (1), 50 (1978). That is, the ratio of the relative tumor weight in the test group (T) to that in the control group (C) [T/C (%)] was calculated, and when the minimum of the ratio [Min.

Colon 26 solid tumor = assay: Inhibitory activity of dye accumulation in the solid tumor tissue (inhibition of the tumor blood flow); type: in vivo, Male BALB/c mice; design: key to Inhibitory activity of dye accumulation into solid tumor: +: The average absorbance in the test group is significantly smaller than the average absorbance in the control group.; -: There is no significant difference in the average absorbance between the test group and the control group; details: for Inhibitory activity of dye accumulation into solid tumor: intravenous, Evans blue 1 hour after administration
Procedure: Inhibitory activity of dye accumulation in the solid tumor tissue (inhibition of the tumor blood flow): a) Materials: Test Animal: Male BALB/c mice (weighing 21-27 g, six mice per group) Tumor: Colon 26 solid tumor b) Test Method: Colon 26 solid tumor was cut in a size of about 1 mm square. The pieces of solid tumor were treated with a 0.25% collagenase solution and 0.02% deoxyribonuclease solution at 37° C. for 1.5 hour to give a cell suspension of colon 26 solid tumor cells. The cell suspension was adjusted to 3×10^6 cells/ml and the cell suspension (100 μl) was subcutaneously inoculated on the right back of male BALB/c mice. Ten days after the transplantation, the longitudinal size of the tumor was measured, and when the longitudinal size of the tumor reached about 10 mm, the mice were randomized. To the mice in test groups, the test compound was intravenously administered in an amount of 10 mg/kg or 1.25 mg/kg. The test compound was administered in the form of a solution in saline (in the test solution of Test Compound BF and BK, an equimolar amount of fumaric acid was further added, and in the test solution of Test Compound BN, an equimolar amount of hydrochloric acid was further added). To the mice in the control group, only saline was administered intravenously. One hour after the administration, 3% Evans blue-saline solution was injected intravenously via the tail vein of the mice in a volume of 0.1 ml per 10 g of the body weight of mouse, and 5 minutes later the mice were killed by luxation of the cervical vertebrae. After removing the tumor, the tumor was weighed. To extract Evans blue, the tumor was suspensed in 0.5% aqueous sodium sulfate (1.5 ml per 1 g of the tumor) and acetone (3.5 ml per 1 g of tumor), and then the tumor was cut into small pieces. After allowing to stand at room temperature overnight, the suspension were centrifuged at 3,000 rpm for 10 minutes to extract Evans blue, and the absorbance of the supernatant was read at 630 nm. […] (-): There is no significant difference in the average absorbance between the test group and the control group.

Acute toxicity = details: mouse, in vivo, one week observation
Procedure: Test Animal: Male ddY mice (5 week old, five mice per group)
To male ddY mice was administered a solution of a test compound in saline intravenously, or a solution of a test compound in distilled water orally. One week after the administration, the number of death of mice was counted, and the LD50 was calculated therefrom by a probit method.

[2] = system: test blood cell suspension; assay: Hemolytic activity; type: cell-based, Male Donryu rats; details: 20 μg/ml
Procedure: (§1) Hemolytic activity: a) Materials: Test Animal: Male Donryu rats Test Compounds: The same as in Experiment 1 b) Test Method: Blood (about 6 ml or more) was collected from abdominal large vein of male Donryu rats, which was taken in a test tube containing dipotassium ethylenediamine tetraacetate (10 mg). The blood thus collected was divided into each 2 ml, which was centrifuged at 3,000 rpm for 5 minutes. After removing the supernatant, a 150 mM phosphate buffer (pH 7.4) (10 ml) was added thereto, and the mixture was mildly mixed. The mixture was centrifuged at 3,000 rpm for 5 minutes, followed by washing with the same phosphate buffer as above. This procedure was repeated twice. Finally, the same phosphate buffer was added thereto to prepare a test blood cell suspension. The test compound was dissolved in a saline solution in a concentration of 2 mg/ml in case of No. 5666, and of 20 mg/ml in case of the test compounds of this invention. […] Immediately after the incubation, the mixture was centrifuged at 3,000 rpm for 5 minutes, and the supernatant (each 200 μl) was added to a well of a 96 well microplate (an immunoassay plate with plane bottom), and the absorbance (OD: optical density) was read with a microplate reader (at a wavelength of 550 nm). […] The hemolytic rate was calculated by the following equation: [formula] […]

Hemolytic activity = type: cell-based, Male Donryu rats; details: rat, red blood cells; 20 μg/ml, 37° C., 60 minutes; read-out: hemolytic ratio
Procedure: as §1

O[C@@H]1C[C@@H](Oc2nc(N3CCNCC3)nc3ccccc23)C[C@@H]1O [Compound AM, 4-[(t-3,t-4-Dihydroxycyclopentan-r-1-yl)oxy]-2-(1-piperazinyl)quinazoline monohydrochloride]
Evaluation ([1]; 30 mg/kg (po) (× 40 days)): Effective (when the minimum of the ratio [Min. T/C (%)] was less than 42%, the test compound was evaluated as "effective") | Min. T/C (%) ([1]; 30 mg/kg (po) (× 40 days)): 36.1% | Inhibitory activity of dye accumulation into solid tumor (Colon 26 solid tumor; 1.25 mg/kg): + | Inhibitory activity of dye accumulation into solid tumor (Colon 26 solid tumor; 10 mg/kg): + | LD50 at 168 h (Acute toxicity; Intravenous injection): 101 mg/kg | LD50 at 168 h (Acute toxicity; Oral administration): > 500 mg/kg

Cl.OC[C@H](O)CCOc1nc(N2CCNCC2)nc2ccccc12 [Compound BJ, 4-[(3R)-(3,4-Dihydroxybutan-1-yl)oxy]-2-(1-piperazinyl)quinazoline monohydrochloride]
Evaluation ([1]; 30 mg/kg (po) (× 40 days)): Effective (when the minimum of the ratio [Min. T/C (%)] was less than 42%, the test compound was evaluated as "effective") | Min. T/C (%) ([1]; 30 mg/kg (po) (× 40 days)): 38.8% | Inhibitory activity of dye accumulation into solid tumor (Colon 26 solid tumor; 1.25 mg/kg): + | Inhibitory activity of dye accumulation into solid tumor (Colon 26 solid tumor; 10 mg/kg): + | LD50 at 168 h (Acute toxicity; Intravenous injection): 118 mg/kg | LD50 at 168 h (Acute toxicity; Oral administration): > 1000 mg/kg

C=CCN1CCN(c2nc(OCCCCC)c3ccccc3n2)CC1.O=C(O)/C=C/C(=O)O [No. 5666, 2-(4-Allylpiperazin-1-yl)-4-[(1-pentyl)oxy]-quinazoline monofumarate, reference compound]
Evaluation ([1]; 30 mg/kg (po) (× 40 days)): Non-effective | Min. T/C (%) ([1]; 30 mg/kg (po) (× 40 days)): 59.7% | Evaluation ([1]; 100 mg/kg (po) (× 40 days)): Effective (when the minimum of the ratio [Min. T/C (%)] was less than 42%, the test compound was evaluated as "effective") | Min. T/C (%) ([1]; 100 mg/kg (po) (× 40 days)): 29.9% | Inhibitory activity of dye accumulation into solid tumor (Colon 26 solid tumor; 1.25 mg/kg): - | Inhibitory activity of dye accumulation into solid tumor (Colon 26 solid tumor; 10 mg/kg): + | inhibition of the flow of blood into tumor tissue / dye accumulation (in words) (Colon 26 solid tumor; mouse solid tumor (colon 26)): has such an inhibitory activity | hemolytic activity (in words) [2]: induced hemolytic activity | hemolysis at 1 h (Hemolytic activity): 38%
